Test results from patent US10563263B2, “Genetic polymorphisms associated with statin response and cardiovascular diseases, methods of detection and uses thereof” (CELERA CORPORATION, priority 2010, dated 2020).

System: CVD (CHD or stroke)
Experiment: CARE: SNP by pravastatin treatment interaction, logistic regression (synergy index), CVD endpoint
Type: in vivo, human
Details: for OR (SNP x pravastatin interaction) / OR (synergy index, SNP x pravastatin treatment interaction): CARE; for OR (synergy index), CARE, Prava vs Placebo: CVD endpoint
Source text: CARE was a secondary prevention trial and WOSCOPS was a primary prevention trial.
The CHD endpoint was defined in the analyses herein of CARE as a composite endpoint of fatal CHD, definite non-fatal MI, or revascularization, and was defined in the analyses herein of WOSCOPS as a composite endpoint of death from CHD, nonfatal MI, or revascularization. In both the CARE and WOSCOPS analyses herein, the CVD endpoint was defined as a composite endpoint of CHD or stroke. […] Revascularization, which can include percutaneous transluminal coronary angioplasty (PTCA), stent placement, and coronary artery bypass graft (CABG), are medical interventions that indicate the presence of CHD.
Cohort and case-only study designs were used to identify SNPs associated with response to statin treatment.
For each SNP, a logistic regression model having treatment status as the dependent variable and SNP as the independent predictor variable was performed, with terms for age, sex and race included in the model as covariates. The anti-log of the regression coefficient corresponding to the SNP is an estimate of the synergy index (SI) (Davis et al., “Imputing gene-treatment interactions when the genotype distribution is unknown using case-only and putative placebo analyses-a new method for the Genetics of Hypertension Associated Treatment (GenHAT) study”, Statistics in Medicine 23: (2004), pages 2413-2427). The SI is a ratio of odds ratios: for example in the CARE and WOSCOPS studies, the SI represents the factor by which the odds-ratio of statin treatment, compared with placebo, among major homozygous individuals is multiplied by in order to obtain the odds-ratio of treatment vs. placebo among heterozygous individuals; and multiplied by a second time to obtain the odds-ratio of treatment vs. placebo in minor homozygous individuals. […] In a randomized clinical trial, genotype and treatment are independent by design.

For `CC[C@H](C)C(=O)O[C@H]1C[C@H](O)C=C2C=C[C@H](C)[C@H](CC[C@@H](O)C[C@@H](O)CC(=O)O)[C@H]21` [Pravastatin, pravastatin], which “OR (SNP x pravastatin interaction)” value (rs2132242 allele A, ADD model, Imputed) is on record?
Its value is 0.7317.

And the “OR (SNP x pravastatin interaction)” value (rs2132242 allele A, DOM model, Imputed)?
The value was 0.6043.

What about the “OR (SNP x pravastatin interaction)” value (rs2158958 allele A, DOM model, Imputed) of the same compound?
The value was 0.6617.

And the “OR (SNP x pravastatin interaction)” value (rs2158961 allele G, DOM model, Imputed)?
The value was 0.6544.

What about the “OR (SNP x pravastatin interaction)” value (rs2163046 allele A, DOM model, Imputed) of the same compound?
The value was 1.474.

What about the “OR (SNP x pravastatin interaction)” value (rs2180286 allele G, DOM model, Imputed) of the same compound?
Its value is 0.6211.

What about the “OR (SNP x pravastatin interaction)” value (rs2180684 allele A, DOM model, Imputed) of the same compound?
Its value is 1.684.

And the “OR (SNP x pravastatin interaction)” value (rs2188079 allele C, ADD model, Imputed)?
Its value is 1.333.

What about the “OR (SNP x pravastatin interaction)” value (rs2190598 allele T, DOM model, Imputed) of the same compound?
Its value is 0.6617.

What about the “OR (SNP x pravastatin interaction)” value (rs2190600 allele A, DOM model, Imputed) of the same compound?
Its value is 0.6716.

And the “OR (SNP x pravastatin interaction)” value (rs2224184 allele T, DOM model, Genotyped)?
The value was 0.6357.

What about the “OR (SNP x pravastatin interaction)” value (rs2247066 allele A, DOM model, Imputed) of the same compound?
Its value is 0.6151.

What about the “OR (SNP x pravastatin interaction)” value (rs2248236 allele C, ADD model, Imputed) of the same compound?
Its value is 0.6377.

What about the “OR (SNP x pravastatin interaction)” value (rs2248236 allele C, DOM model, Imputed) of the same compound?
The value was 0.6049.

And the “OR (SNP x pravastatin interaction)” value (rs2265733 allele C, ADD model, Imputed)?
Its value is 0.6269.

And the “OR (SNP x pravastatin interaction)” value (rs2265733 allele C, DOM model, Imputed)?
Its value is 0.5989.

And the “OR (SNP x pravastatin interaction)” value (rs2270584 allele A, ADD model, Imputed)?
The value was 0.7437.

What about the “OR (SNP x pravastatin interaction)” value (rs2270584 allele A, DOM model, Imputed) of the same compound?
The value was 0.5859.

What about the “OR (SNP x pravastatin interaction)” value (rs2270586 allele A, ADD model, Imputed) of the same compound?
The value was 0.7444.

What about the “OR (SNP x pravastatin interaction)” value (rs2270586 allele A, DOM model, Imputed) of the same compound?
The value was 0.5879.

What about the “OR (SNP x pravastatin interaction)” value (rs2317057 allele T, ADD model, Imputed) of the same compound?
Its value is 0.7125.

What about the “OR (SNP x pravastatin interaction)” value (rs2322100 allele T, REC model, Genotyped) of the same compound?
Its value is 1.768.

And the “OR (SNP x pravastatin interaction)” value (rs2322101 allele A, REC model, Imputed)?
The value was 1.764.

And the “OR (SNP x pravastatin interaction)” value (rs2327929 allele G, REC model, Imputed)?
The value was 1.996.

And the “OR (SNP x pravastatin interaction)” value (rs2332844 allele A, ADD model, Imputed)?
The value was 1.802.

What about the “OR (SNP x pravastatin interaction)” value (rs2332844 allele A, REC model, Imputed) of the same compound?
The value was 1.849.

And the “OR (SNP x pravastatin interaction)” value (rs2349170 allele G, DOM model, Imputed)?
Its value is 1.638.

And the “OR (SNP x pravastatin interaction)” value (rs2356722 allele G, DOM model, Imputed)?
The value was 0.5863.

What about the “OR (SNP x pravastatin interaction)” value (rs2364956 allele T, ADD model, Imputed) of the same compound?
The value was 1.439.

And the “OR (SNP x pravastatin interaction)” value (rs2373793 allele G, ADD model, Imputed)?
The value was 1.379.

What about the “OR (SNP x pravastatin interaction)” value (rs2373793 allele G, DOM model, Imputed) of the same compound?
The value was 1.446.

What about the “OR (SNP x pravastatin interaction)” value (rs2383903 allele G, DOM model, Imputed) of the same compound?
The value was 0.6249.

What about the “OR (SNP x pravastatin interaction)” value (rs2387945 allele G, DOM model, Imputed) of the same compound?
Its value is 1.587.

And the “OR (SNP x pravastatin interaction)” value (rs2389863 allele A, DOM model, Imputed)?
Its value is 0.6722.

What about the “OR (SNP x pravastatin interaction)” value (rs2389866 allele C, DOM model, Imputed) of the same compound?
The value was 0.6634.

And the “OR (SNP x pravastatin interaction)” value (rs2389869 allele C, DOM model, Imputed)?
Its value is 0.6634.

What about the “OR (SNP x pravastatin interaction)” value (rs2389870 allele C, DOM model, Genotyped) of the same compound?
The value was 0.6413.

What about the “OR (synergy index, SNP x pravastatin treatment interaction)” value (rs16938626 allele G, model DOM, Imputed) of the same compound?
The value was 0.612.

What about the “OR (synergy index, SNP x pravastatin treatment interaction)” value (rs16964300 allele G, model ADD, Imputed) of the same compound?
The value was 0.6771.

What about the “OR (synergy index, SNP x pravastatin treatment interaction)” value (rs16964300 allele G, model DOM, Imputed) of the same compound?
Its value is 0.7073.

What about the “OR (synergy index, SNP x pravastatin treatment interaction)” value (rs16986282 allele G, model DOM, Imputed) of the same compound?
Its value is 0.3124.

And the “OR (synergy index, SNP x pravastatin treatment interaction)” value (rs17007620 allele G, model ADD, Imputed)?
Its value is 1.421.

What about the “OR (synergy index, SNP x pravastatin treatment interaction)” value (rs17007620 allele G, model DOM, Imputed) of the same compound?
The value was 1.572.

What about the “OR (synergy index, SNP x pravastatin treatment interaction)” value (rs17014326 allele G, model DOM, Imputed) of the same compound?
The value was 0.5837.

What about the “OR (synergy index, SNP x pravastatin treatment interaction)” value (rs17047957 allele C, model DOM, Imputed) of the same compound?
The value was 1.47.

What about the “OR (synergy index, SNP x pravastatin treatment interaction)” value (rs17073341 allele A, model ADD, Imputed) of the same compound?
Its value is 2.568.

And the “OR (synergy index, SNP x pravastatin treatment interaction)” value (rs17073341 allele A, model DOM, Imputed)?
Its value is 2.569.

And the “OR (synergy index, SNP x pravastatin treatment interaction)” value (rs17138702 allele G, model ADD, Imputed)?
The value was 0.5527.

What about the “OR (synergy index, SNP x pravastatin treatment interaction)” value (rs17189710 allele T, model ADD, Imputed) of the same compound?
The value was 1.359.

And the “OR (synergy index, SNP x pravastatin treatment interaction)” value (rs17189710 allele T, model REC, Imputed)?
Its value is 1.896.

And the “OR (synergy index, SNP x pravastatin treatment interaction)” value (rs17310176 allele T, model ADD, Imputed)?
The value was 0.6381.

And the “OR (synergy index, SNP x pravastatin treatment interaction)” value (rs17310176 allele T, model DOM, Imputed)?
The value was 0.5794.

What about the “OR (synergy index, SNP x pravastatin treatment interaction)” value (rs17358860 allele A, model DOM, Imputed) of the same compound?
The value was 0.6291.

And the “OR (synergy index, SNP x pravastatin treatment interaction)” value (rs17370541 allele T, model REC, Imputed)?
Its value is 2.075.

And the “OR (synergy index, SNP x pravastatin treatment interaction)” value (rs17530747 allele T, model DOM, Imputed)?
Its value is 0.5794.

And the “OR (synergy index, SNP x pravastatin treatment interaction)” value (rs17649114 allele C, model DOM, Imputed)?
Its value is 1.543.

And the “OR (synergy index, SNP x pravastatin treatment interaction)” value (rs17766172 allele A, model REC, Imputed)?
The value was 0.3869.

What about the “OR (synergy index), CARE, Prava vs Placebo” value (shortened to “OR (synergy index), CARE”) (SNP rs304597 (A1 A, A2 G), rec model, cohort) of the same compound?
Its value is 1.95.

What about the “OR (synergy index), CARE” value (SNP rs304601 (A1 A, A2 G), rec model, Caseonly) of the same compound?
The value was 2.28.

What about the “OR (synergy index), CARE” value (SNP rs988146 (A1 G, A2 A), add model, Caseonly) of the same compound?
The value was 0.66.

And the “OR (synergy index), CARE” value (SNP rs1336400 (A1 A, A2 G), dom model, cohort)?
Its value is 1.68.

What about the “OR (synergy index), CARE” value (SNP rs1559557 (A1 G, A2 A), add model, Caseonly) of the same compound?
Its value is 1.34.

And the “OR (synergy index), CARE” value (SNP rs1877527 (A1 G, A2 A), add model, Caseonly)?
The value was 0.75.

And the “OR (synergy index), CARE” value (SNP rs2132241 (A1 A, A2 G), add model, Caseonly)?
Its value is 0.74.

What about the “OR (synergy index), CARE” value (SNP rs2270588 (A1 G, A2 A), add model, Caseonly) of the same compound?
The value was 0.72.

And the “OR (synergy index), CARE” value (SNP rs3844207 (A1 G, A2 C), add model, cohort)?
The value was 0.73.

What about the “OR (synergy index), CARE” value (SNP rs7132840 (A1 T, A2 G), add model, cohort) of the same compound?
The value was 0.75.

What about the “OR (synergy index), CARE” value (SNP rs9325191 (A1 A, A2 C), add model, Caseonly) of the same compound?
Its value is 0.74.

What about the “OR (synergy index), CARE” value (SNP rs9346951 (A1 A, A2 G), add model, Caseonly) of the same compound?
The value was 1.56.

What about the “OR (synergy index), CARE” value (SNP rs10787944 (A1 G, A2 A), dom model, Caseonly) of the same compound?
Its value is 1.63.

And the “OR (synergy index), CARE” value (SNP rs10945874 (A1 T, A2 C), add model, cohort)?
The value was 1.72.

What about the “OR (synergy index), CARE” value (SNP rs11178579 (A1 T, A2 G), add model, cohort) of the same compound?
The value was 0.76.

What about the “OR (synergy index), CARE” value (SNP rs13103899 (A1 G, A2 A), dom model, cohort) of the same compound?
The value was 0.70.

What about the “OR (synergy index), CARE” value (SNP rs13107334 (A1 G, A2 T), add model, cohort) of the same compound?
The value was 0.69.

What about the “OR (synergy index), CARE” value (SNP rs13121569 (A1 G, A2 A), dom model, Caseonly) of the same compound?
The value was 0.66.

And the “OR (synergy index), CARE” value (SNP rs17048681 (A1 G, A2 T), add model, cohort)?
Its value is 1.26.
